Laboratory results from article PMC6812656 (Cancer cell, 2019).

What was measured:
[1] = target: T1, ALKBH5 (Homo sapiens, UniProt Q6P6C2); assay: HPLC-based assay of inhibition of ALKBH5 m6A demethylation in RNA; format: biochemical
Target sequence in this assay (Q6P6C2 67-394 limits assumed): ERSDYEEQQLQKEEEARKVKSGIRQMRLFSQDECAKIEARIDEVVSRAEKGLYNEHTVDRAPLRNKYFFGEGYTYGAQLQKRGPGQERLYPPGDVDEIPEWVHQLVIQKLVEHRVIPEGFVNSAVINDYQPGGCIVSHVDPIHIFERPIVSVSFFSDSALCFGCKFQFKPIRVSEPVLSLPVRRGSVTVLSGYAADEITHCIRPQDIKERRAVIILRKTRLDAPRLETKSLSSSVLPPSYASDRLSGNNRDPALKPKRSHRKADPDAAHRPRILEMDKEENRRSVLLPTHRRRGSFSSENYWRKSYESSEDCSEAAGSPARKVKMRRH

[2] = target: T2, COX-2 (Homo sapiens, UniProt P35354); assay: COX fluorescent inhibitor screening assay, COX-2; format: biochemical; settings: even at 50 μM
T2 sequence (P35354 18-604): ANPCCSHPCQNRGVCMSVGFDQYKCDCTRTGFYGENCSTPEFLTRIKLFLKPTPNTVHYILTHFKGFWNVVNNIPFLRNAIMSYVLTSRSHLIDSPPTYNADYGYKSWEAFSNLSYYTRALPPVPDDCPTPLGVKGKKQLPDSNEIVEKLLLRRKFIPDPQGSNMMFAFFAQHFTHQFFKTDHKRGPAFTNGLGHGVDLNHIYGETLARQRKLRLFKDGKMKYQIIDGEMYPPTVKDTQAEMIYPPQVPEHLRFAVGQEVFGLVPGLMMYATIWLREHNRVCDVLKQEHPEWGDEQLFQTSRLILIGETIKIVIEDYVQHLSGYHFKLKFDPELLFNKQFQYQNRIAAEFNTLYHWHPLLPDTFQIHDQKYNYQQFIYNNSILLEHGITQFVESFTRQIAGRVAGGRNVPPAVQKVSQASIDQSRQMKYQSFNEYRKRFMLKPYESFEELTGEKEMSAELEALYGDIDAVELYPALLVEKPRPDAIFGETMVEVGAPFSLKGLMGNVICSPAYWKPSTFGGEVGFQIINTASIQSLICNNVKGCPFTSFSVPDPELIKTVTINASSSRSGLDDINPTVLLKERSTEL

[3] = test system: HDAC, DOTL1, BRD, LSD1 and Jumonji domain-containing histone demethylases; assay: Inhibition of epigenetic enzymes in vitro; format: biochemical
[4] = test system: NB4 cells; assay: Cellular uptake by LC-MS/MS quantitation, NB4; format: cell-based, human; settings: 10 μM for 24 hr
[5] = target: T3, COX-1 (Ovis aries, UniProt P05979); assay: COX fluorescent inhibitor screening assay, COX-1; format: biochemical; settings: even at 50 μM
T3 sequence (P05979 25-600): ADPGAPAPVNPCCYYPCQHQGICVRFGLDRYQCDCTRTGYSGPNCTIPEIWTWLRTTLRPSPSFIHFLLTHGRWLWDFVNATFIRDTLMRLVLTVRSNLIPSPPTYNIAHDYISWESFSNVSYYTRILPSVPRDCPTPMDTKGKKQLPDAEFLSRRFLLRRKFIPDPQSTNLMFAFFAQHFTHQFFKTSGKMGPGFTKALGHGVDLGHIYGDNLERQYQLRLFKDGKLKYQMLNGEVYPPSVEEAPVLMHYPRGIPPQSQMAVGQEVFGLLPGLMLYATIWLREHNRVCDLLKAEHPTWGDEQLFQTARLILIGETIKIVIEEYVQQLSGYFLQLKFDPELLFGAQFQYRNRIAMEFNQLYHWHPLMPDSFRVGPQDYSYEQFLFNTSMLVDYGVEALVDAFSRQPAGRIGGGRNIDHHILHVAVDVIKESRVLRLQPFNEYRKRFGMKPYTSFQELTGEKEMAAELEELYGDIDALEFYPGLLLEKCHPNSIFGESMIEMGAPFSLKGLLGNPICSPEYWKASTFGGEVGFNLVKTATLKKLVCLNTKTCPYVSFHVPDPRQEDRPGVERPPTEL

[6] = test system: NB4 cells; assay: Cell proliferation assay, NB4; format: cell-based; settings: Homo sapiens, NB-4, 72 h, read-out: IC50, proliferation
[7] = test system: MONOMAC6 cells; assay: Cell proliferation assay, MONOMAC6; format: cell-based; settings: Homo sapiens, MONO-MAC-6, 72 h, read-out: IC50, proliferation
[8] = test system: MONOMAC6 cells; assay: Cellular uptake by LC-MS/MS quantitation, MONOMAC6; format: cell-based, human; settings: 10 μM for 24 hr
[9] = test system: m6A peaks in mRNA of MONOMAC6 AML cells; assay: m6A-seq in MONOMAC6 cells; format: cell-based, human; settings: 5 μM, 72 hr, peaks identified in both DMSO and treated groups
[10] = test system: oncogenic proteases; assay: Protease profiling; format: biochemical, human; settings: 1 μM or 10 μM
[11] = test system: NB4 and MONOMAC6 cells; assay: Cell proliferation assay, NB4 and MONOMAC6; format: cell-based; settings: Homo sapiens, MONO-MAC-6, 72 h, read-out: IC50, anti-proliferative activity
[12] = test system: functional primary AML LSCs; assay: Secondary transplantation of PDX AML cells; settings: AML cells from primary FB23-2-treated PDX mice
[13] = test system: human normal bone marrow (BM) cells; assay: Proliferation of normal bone marrow cells; format: cell-based; settings: BM cells from a healthy donor
[14] = target: T4, TET1 protein (Homo sapiens, UniProt Q8NFU7); assay: TET1 enzyme activity in vitro; format: biochemical; settings: 20 μM
T4 sequence (Q8NFU7 1418-2136 limits assumed): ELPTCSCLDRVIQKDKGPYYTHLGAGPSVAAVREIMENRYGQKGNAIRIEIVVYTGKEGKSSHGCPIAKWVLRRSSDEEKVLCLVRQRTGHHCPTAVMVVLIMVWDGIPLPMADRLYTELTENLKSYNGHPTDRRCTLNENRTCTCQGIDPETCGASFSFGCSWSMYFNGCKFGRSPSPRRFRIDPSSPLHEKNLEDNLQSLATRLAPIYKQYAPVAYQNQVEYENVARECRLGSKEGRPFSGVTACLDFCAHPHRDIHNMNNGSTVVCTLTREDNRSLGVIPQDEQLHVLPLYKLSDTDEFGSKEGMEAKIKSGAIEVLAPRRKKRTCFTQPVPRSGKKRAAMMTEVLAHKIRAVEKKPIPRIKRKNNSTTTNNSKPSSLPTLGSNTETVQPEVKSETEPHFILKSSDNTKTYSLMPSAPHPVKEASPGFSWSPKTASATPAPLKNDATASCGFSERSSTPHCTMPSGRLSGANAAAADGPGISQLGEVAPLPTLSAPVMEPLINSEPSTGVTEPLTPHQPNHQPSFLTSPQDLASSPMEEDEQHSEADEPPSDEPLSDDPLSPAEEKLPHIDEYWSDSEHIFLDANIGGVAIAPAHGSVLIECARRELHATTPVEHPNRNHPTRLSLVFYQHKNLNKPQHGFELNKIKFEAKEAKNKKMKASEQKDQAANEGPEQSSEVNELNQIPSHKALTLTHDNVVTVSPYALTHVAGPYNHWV

[15] = target: T5, FTO (Homo sapiens, UniProt Q9C0B1); assay: DARTS assay for FTO in AML cell lysates; format: binding; settings: 50, 200, 500 μM
Target sequence in this assay (Q9C0B1 whole entry): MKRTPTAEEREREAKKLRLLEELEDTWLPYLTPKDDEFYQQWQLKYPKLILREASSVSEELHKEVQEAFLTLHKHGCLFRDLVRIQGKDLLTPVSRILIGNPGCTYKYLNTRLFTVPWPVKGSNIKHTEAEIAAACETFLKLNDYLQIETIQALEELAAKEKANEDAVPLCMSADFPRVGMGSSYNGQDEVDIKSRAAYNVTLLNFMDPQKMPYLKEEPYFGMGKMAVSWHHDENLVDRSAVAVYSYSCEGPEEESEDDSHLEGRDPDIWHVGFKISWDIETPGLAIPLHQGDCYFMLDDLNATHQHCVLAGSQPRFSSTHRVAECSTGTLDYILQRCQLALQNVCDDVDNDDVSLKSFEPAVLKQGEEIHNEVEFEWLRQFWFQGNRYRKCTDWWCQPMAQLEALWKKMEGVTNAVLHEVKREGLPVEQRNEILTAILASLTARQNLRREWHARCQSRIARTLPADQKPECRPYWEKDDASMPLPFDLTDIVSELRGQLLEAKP

[16] = test system: human primary AML cells; assay: Cell proliferation assay, primary AML cells from four patients; format: cell-based; settings: 96 h, read-out: IC50, proliferation of primary AML cells
[17] = test system: MONOMAC6 AML cells; assay: MONOMAC6 xeno-transplantation leukemic model; format: in vivo, NSGS mice; settings: 2 mg/kg i.p. daily for 10 days, from 10 days post xeno-transplantation
[18] = test system: MA9.3ITD, MA9.3RAS, U937, ML-2 and MV4-11 AML cell lines; assay: Cell proliferation assay, panel of additional AML cell lines; format: cell-based; settings: Homo sapiens, 96 h, read-out: IC50, proliferation
[19] = Microsomal stability assay; format: in vitro ADME; settings: SD, rat, liver microsomes
[20] = Pharmacokinetics in SD rats; format: in vivo; settings: male, Sprague Dawley, rat, plasma, ip, 3 mg/kg
[21] = target: T5, FTO; assay: HPLC-based assay of inhibition of FTO m6A demethylation in RNA; format: biochemical; settings: HPLC quantification
Target sequence in this assay (Q9C0B1 32-505 limits assumed): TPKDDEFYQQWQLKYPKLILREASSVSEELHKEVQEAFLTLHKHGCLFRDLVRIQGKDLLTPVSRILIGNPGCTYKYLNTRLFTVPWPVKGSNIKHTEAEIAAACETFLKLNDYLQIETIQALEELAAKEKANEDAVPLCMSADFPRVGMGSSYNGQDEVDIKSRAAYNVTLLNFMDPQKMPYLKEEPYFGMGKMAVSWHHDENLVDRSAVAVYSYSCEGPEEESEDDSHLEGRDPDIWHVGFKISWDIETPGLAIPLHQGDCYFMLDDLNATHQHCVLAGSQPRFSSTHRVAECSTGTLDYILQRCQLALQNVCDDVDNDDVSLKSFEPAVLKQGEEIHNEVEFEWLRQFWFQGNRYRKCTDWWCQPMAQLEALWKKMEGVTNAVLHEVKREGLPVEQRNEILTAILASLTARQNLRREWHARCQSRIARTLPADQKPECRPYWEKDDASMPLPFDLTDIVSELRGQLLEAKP

[22] = Toxicity study in BALB/c mice; format: in vivo; settings: 20 mg/kg i.p. daily for 14 days
[23] = target: T1, ALKBH5; assay: DARTS assay for ALKBH5 in AML cell lysates; format: binding
Target sequence in this assay (Q6P6C2 whole entry): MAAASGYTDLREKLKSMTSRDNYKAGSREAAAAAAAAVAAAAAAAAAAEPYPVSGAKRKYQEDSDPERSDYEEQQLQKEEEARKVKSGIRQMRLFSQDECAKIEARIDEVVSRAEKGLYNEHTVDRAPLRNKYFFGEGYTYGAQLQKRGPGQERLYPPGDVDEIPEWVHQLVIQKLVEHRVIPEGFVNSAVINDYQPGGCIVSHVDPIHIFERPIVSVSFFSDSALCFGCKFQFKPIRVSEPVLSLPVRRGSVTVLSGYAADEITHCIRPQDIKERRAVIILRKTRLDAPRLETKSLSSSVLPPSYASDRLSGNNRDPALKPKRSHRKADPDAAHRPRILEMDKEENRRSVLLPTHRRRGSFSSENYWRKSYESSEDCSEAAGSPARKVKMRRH

[24] = test system: primary AML cells (patient Pt 2017_63); assay: PDX AML mouse model; settings: 6 mg/kg/day i.p. for 17 days

Compound: Cc1noc(C)c1-c1cc(Cl)c(Nc2ccccc2C(=O)O)c(Cl)c1 [FB23, 2-((2,6-dichloro-4-(3,5-dimethylisoxazol-4-yl)phenyl)amino)benzoic acid]
- inhibition of ALKBH5 demethylation in vitro [1]: neither FB23 nor FB23-2 inhibits
- inhibition of COX-2 [2]: neither FB23 nor FB23-2 was observed to significantly inhibit
- effect on activities of epigenetic targets in vitro [3]: slightly attenuated
- intracellular concentration [4]: 0.02 nmol/million
- inhibition of COX-1 [5]: neither FB23 nor FB23-2 was observed to significantly inhibit
- IC50 [6]: 44.8 µM
- IC50 [7]: 23.6 µM
- intracellular concentration [8]: 0.015 nmol/million

Compound: Cc1noc(C)c1-c1cc(Cl)c(Nc2ccccc2C(=O)NO)c(Cl)c1 [FB23-2, 2-((2,6-dichloro-4-(3,5-dimethylisoxazol-4-yl)phenyl)amino)-N-hydroxybenzamide]
- share of m6A peaks increased upon treatment [9]: 62.1%
- inhibition of oncogenic proteases [10]: barely inhibited
- IC50 [11]: 0.8 to 1.5 µM
- inhibition of ALKBH5 demethylation in vitro [1]: neither FB23 nor FB23-2 inhibits
- secondary PDX mice still surviving after 100 days [12]: 50%
- inhibition of COX-2 [2]: neither FB23 nor FB23-2 was observed to significantly inhibit
- effect on activities of epigenetic targets in vitro [3]: slightly attenuated
- effect on proliferation of normal BM cells [13]: minimally altered proliferation
- inhibition of TET1 protein in vitro [14]: minimally inhibited
- protease resistance of FTO protein (DARTS) [15]: protease-resistant
- inhibition of COX-1 [5]: neither FB23 nor FB23-2 was observed to significantly inhibit
- IC50 [16]: 1.6 to 16 µM
- survival of leukemic mice [17]: almost doubling the median survival
- IC50 [18]: 1.9 to 5.2 µM
- CLint scaled at 3 μM [19]: 19.7 mL/min/kg
- half-life at 3 μM [19]: 2.13 h
- AUC(0-t) [20]: 2180 ± 152 ng·h/mL
- Cmax [20]: 2420 ± 90.9 ng/mL
- Tmax [20]: 4.8 min
- half-life [20]: 6.7 ± 1.3 h
- inhibitory activity on FTO demethylation in vitro [21]: maintains inhibitory activity
- body weight loss [22]: no evidence of body weight loss
- hematopoiesis (hematology and plasma biochemistry) vs vehicle [22]: no significant difference
- physical damage on organs [22]: nor was any physical damage observed
- direct binding to ALKBH5 (DARTS) [23]: could not directly bind
- median survival time [24]: 58 days
